According to US9227970B2, “Triazolopyridine compounds” (Hoffmann-La Roche Inc., priority 2011, dated 2016):

Molecular target: human PDE10A (Homo sapiens (Human), UniProt Q9Y233)
Sequence (Q9Y233 other isoform, or with tags, fused parts or gaps): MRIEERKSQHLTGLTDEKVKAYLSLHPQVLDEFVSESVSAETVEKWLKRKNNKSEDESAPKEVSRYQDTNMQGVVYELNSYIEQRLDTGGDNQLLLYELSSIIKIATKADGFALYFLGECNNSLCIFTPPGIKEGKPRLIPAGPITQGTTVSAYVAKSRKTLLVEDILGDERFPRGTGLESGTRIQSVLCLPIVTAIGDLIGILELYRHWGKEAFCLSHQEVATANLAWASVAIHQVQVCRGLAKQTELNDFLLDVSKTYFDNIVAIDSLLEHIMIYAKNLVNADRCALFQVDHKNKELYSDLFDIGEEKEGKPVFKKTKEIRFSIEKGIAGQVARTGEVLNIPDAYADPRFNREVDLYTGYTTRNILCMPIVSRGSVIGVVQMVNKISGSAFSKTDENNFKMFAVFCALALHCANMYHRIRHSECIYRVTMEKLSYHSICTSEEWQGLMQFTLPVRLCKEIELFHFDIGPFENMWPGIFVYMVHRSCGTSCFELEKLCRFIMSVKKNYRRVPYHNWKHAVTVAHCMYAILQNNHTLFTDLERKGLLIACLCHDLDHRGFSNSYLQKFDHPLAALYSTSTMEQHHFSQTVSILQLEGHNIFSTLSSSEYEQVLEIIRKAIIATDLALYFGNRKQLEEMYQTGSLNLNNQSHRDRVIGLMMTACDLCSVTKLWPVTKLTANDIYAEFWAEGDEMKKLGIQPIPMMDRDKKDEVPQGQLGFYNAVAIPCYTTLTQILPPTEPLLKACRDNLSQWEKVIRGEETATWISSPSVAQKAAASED
Experiment: human PDE10A full length Scintillation Proximity Assay (SPA)
Type: biochemical
Settings: 50 nM cGMP + 50 nM [3H]-cGMP, 20 minutes at room temperature, read-out: PDE10A inhibition IC50
Method: The following test was carried out in order to determine the activity of the compounds of the present invention. […] The human PDE10A full length assay was performed in 96-well micro titer plates. […] A range of concentrations of the potential inhibitor was used to generate data for calculating the concentration of inhibitor resulting in 50% of the effect (e.g. […] Non-specific activity was tested without the enzyme. The reaction was initiated by the addition of the substrate solution (cGMP and [^3H]-cGMP) and allowed to progress for 20 minutes at room temperature. The reaction was terminated by adding 25 μl of YSi-SPA scintillation beads (GE Healthcare, cat. # RPNQ0150) in 18 mM zinc sulphate solution (stop reagent). […] Afterwards, radioactive counts were measured on a Perkin Elmer Top-Count Scintillation plate reader.
`Cn1ncc(C(=O)O)c1C(=O)Nc1ccc2nc(-c3ccccc3)nn2c1` [Example 1, 1-Methyl-5-(2-phenyl-[1,2,4]triazolo[1,5-a]pyridin-6-ylcarbamoyl)-1H-pyrazole-4-carboxylic acid] gave an IC50 of 47.3 nM.
For `Cn1ncc(C(=O)N2CCCC2)c1C(=O)Nc1ccc2nc(-c3ccccc3)nn2c1` [Example 2, 2-Methyl-4-(pyrrolidine-1-carbonyl)-2H-pyrazole-3-carboxylic acid (2-phenyl-[1,2,4]triazolo[1,5-a]pyridin-6-yl)-amide], the IC50 was 1.2 nM.
With `Cn1ncc(C(=O)N2CCC2)c1C(=O)Nc1ccc2nc(-c3cscn3)nn2c1` [Example 4, 4-(Azetidine-1-carbonyl)-1-methyl-N-(2-(thiazol-4-yl)-[1,2,4]triazolo[1,5-a]pyridin-6-yl)-1H-pyrazole-5-carboxamide] the IC50 was 7.9 nM.
For `Cn1ncc(C(=O)N2CC(F)C2)c1C(=O)Nc1ccc2nc(-c3ccccc3)nn2c1` [Example 6, 4-(3-Fluoro-azetidine-1-carbonyl)-2-methyl-2H-pyrazole-3-carboxylic acid (2-phenyl-[1,2,4]triazolo[1,5-a]pyridin-6-yl)-amide], the IC50 was 1.5 nM.
For `CCN(C)C(=O)c1cnn(C)c1C(=O)Nc1ccc2nc(-c3ccccc3)nn2c1` [Example 7, 2-Methyl-2H-pyrazole-3,4-dicarboxylic acid 4-(ethyl-methyl-amide) 3-[(2-phenyl-[1,2,4]triazolo[1,5-a]pyridin-6-yl)-amide]], the IC50 was 2.2 nM.
In the case of `CN(C(=O)c1cnn(C)c1C(=O)Nc1ccc2nc(-c3ccccc3)nn2c1)C1CC1` [Example 8, 2-Methyl-2H-pyrazole-3,4-dicarboxylic acid 4-(cyclopropyl-methyl-amide) 3-[(2-phenyl-[1,2,4]triazolo[1,5-a]pyridin-6-yl)-amide]], the IC50 is reported as 0.9 nM.
`Cn1ncc(C(=O)N2CCOCC2)c1C(=O)Nc1ccc2nc(-c3cccnc3)nn2c1` [Example 9, 2-Methyl-4-(morpholine-4-carbonyl)-2H-pyrazole-3-carboxylic acid (2-pyridin-3-yl-[1,2,4]triazolo[1,5-a]pyridin-6-yl)-amide] showed an IC50 of 13.2 nM.
In the case of `Cn1ncc(C(=O)N2CCC2)c1C(=O)Nc1ccc2nc(-c3cccnc3)nn2c1` [Example 10, 4-(Azetidine-1-carbonyl)-1-methyl-N-(2-(pyridin-3-yl)-[1,2,4]triazolo[1,5-a]pyridin-6-yl)-1H-pyrazole-5-carboxamide], the IC50 is reported as 43.6 nM.
With `Cn1ncc(C(=O)N2CCOCC2)c1C(=O)Nc1ccc2nc(N3CCOCC3)nn2c1` [Example 14, 2-Methyl-4-(morpholine-4-carbonyl)-2H-pyrazole-3-carboxylic acid (2-morpholin-4-yl-[1,2,4]triazolo[1,5-a]pyridin-6-yl)-amide] the IC50 was 63.8 nM.
For `CCN(C)C(=O)c1cnn(C)c1C(=O)Nc1ccc2nc(N3CCOCC3)nn2c1` [Example 16, 2-Methyl-2H-pyrazole-3,4-dicarboxylic acid 4-(ethyl-methyl-amide) 3-[(2-morpholin-4-yl-[1,2,4]triazolo[1,5-a]pyridin-6-yl)-amide]], the IC50 was 30.8 nM.
Work on `Cn1ncc(C(=O)N2CC(F)C2)c1C(=O)Nc1ccc2nc(N3CCOCC3)nn2c1` [Example 17, 4-(3-Fluoro-azetidine-1-carbonyl)-2-methyl-2H-pyrazole-3-carboxylic acid (2-morpholin-4-yl-[1,2,4]triazolo[1,5-a]pyridin-6-yl)-amide] yielded an IC50 of 26.5 nM.
For `CN(C)c1nc2ccc(NC(=O)c3c(C(=O)N4CCCC4)cnn3C)cn2n1` [Example 21, 2-Methyl-4-(pyrrolidine-1-carbonyl)-2H-pyrazole-3-carboxylic acid (2-dimethylamino-[1,2,4]triazolo[1,5-a]pyridin-6-yl)-amide], the IC50 was 28.6 nM.
Compound `CCN(C)C(=O)c1cnn(C)c1C(=O)Nc1ccc2nc(N(C)C)nn2c1` [Example 22, 2-Methyl-2H-pyrazole-3,4-dicarboxylic acid 3-[(2-dimethylamino-[1,2,4]triazolo[1,5-a]pyridin-6-yl)-amide] 4-(ethyl-methyl-amide)] has an IC50 of 33.5 nM.
With `CN(C)c1nc2ccc(NC(=O)c3c(C(=O)N4CC(F)C4)cnn3C)cn2n1` [Example 23, 4-(3-Fluoro-azetidine-1-carbonyl)-2-methyl-2H-pyrazole-3-carboxylic acid (2-dimethylamino-[1,2,4]triazolo[1,5-a]pyridin-6-yl)-amide] the IC50 was 25 nM.
In the case of `CN(C)c1nc2ccc(NC(=O)c3c(C(=O)N(C)C4CC4)cnn3C)cn2n1` [Example 24, 2-Methyl-2H-pyrazole-3,4-dicarboxylic acid 4-(cyclopropyl-methyl-amide) 3-[(2-dimethylamino-[1,2,4]triazolo[1,5-a]pyridin-6-yl)-amide]], the IC50 is reported as 5.3 nM.
Compound `COc1ncc(C2CC2)nc1C(=O)Nc1ccc2nc(-c3ccccc3)nn2c1` [Example 25, 6-cyclopropyl-3-methoxy-N-(2-phenyl-[1,2,4]triazolo[1,5-a]pyridin-6-yl)pyrazine-2-carboxamide] has an IC50 of 17 nM.
In the case of `CCN(CC)c1nc2ccc(NC(=O)c3c(C(=O)N4CCOCC4)cnn3C)cn2n1` [Example 26, 2-Methyl-4-(morpholine-4-carbonyl)-2H-pyrazole-3-carboxylic acid (2-diethylamino-[1,2,4]triazolo[1,5-a]pyridin-6-yl)-amide], the IC50 is reported as 21.8 nM.
Work on `CCN(CC)c1nc2ccc(NC(=O)c3c(C(=O)N4CCC4)cnn3C)cn2n1` [Example 28, 2-Methyl-4-(azetitine-4-carbonyl)-2H-pyrazole-3-carboxylic acid (2-diethylamino-[1,2,4]triazolo[1,5-a]pyridin-6-yl)-amide] yielded an IC50 of 3.3 nM.
Compound `CCN(C)C(=O)c1cnn(C)c1C(=O)Nc1ccc2nc(N(CC)CC)nn2c1` [Example 29, 2-Methyl-2H-pyrazole-3,4-dicarboxylic acid 3-[(2-diethylamino-[1,2,4]triazolo[1,5-a]pyridin-6-yl)-amide] 4-(ethyl-methyl-amide)] has an IC50 of 9.9 nM.
Compound `CCN(CC)C(=O)c1cnn(C)c1C(=O)Nc1ccc2nc(N(CC)CC)nn2c1` [Example 30, 2-Methyl-2H-pyrazole-3,4-dicarboxylic acid 4-diethylamide 3-[(2-diethylamino-1,2,4]triazolo[1,5-a]pyridin-6-yl)-amide] has an IC50 of 19.1 nM.
`CCN(CC)c1nc2ccc(NC(=O)c3c(C(=O)N(C)C4CC4)cnn3C)cn2n1` [Example 31] gave an IC50 of 2.3 nM.
Compound `Cn1ncc(C(=O)N2CCOCC2)c1C(=O)Nc1ccc2nc(N3CCCC3)nn2c1` [Example 32, 2-Methyl-4-(morpholine-4-carbonyl)-2H-pyrazole-3-carboxylic acid (2-pyrrolidin-1-yl-[1,2,4]triazolo[1,5-a]pyridin-6-yl)-amide] has an IC50 of 2.5 nM.
In the case of `Cn1ncc(C(=O)N2CCC2)c1C(=O)Nc1ccc2nc(N3CCCC3)nn2c1` [Example 33], the IC50 is reported as 0.8 nM.
Work on `Cn1ncc(C(=O)N2CCCC2)c1C(=O)Nc1ccc2nc(N3CCCC3)nn2c1` [Example 34, 2-Methyl-4-(pyrrolidine-1-carbonyl)-2H-pyrazole-3-carboxylic acid (2-pyrrolidin-1-yl-[1,2,4]triazolo[1,5-a]pyridin-6-yl)-amide] yielded an IC50 of 1.2 nM.
`CN(C(=O)c1cnn(C)c1C(=O)Nc1ccc2nc(N3CCCC3)nn2c1)C1CC1` [Example 35] showed an IC50 of 1 nM.
In the case of `CCN(C)C(=O)c1cnn(C)c1C(=O)Nc1ccc2nc(N3CCCC3)nn2c1` [Example 36], the IC50 is reported as 1.9 nM.
`CCN(CC)C(=O)c1cnn(C)c1C(=O)Nc1ccc2nc(N3CCCC3)nn2c1` [Example 37] showed an IC50 of 3.5 nM.
For `CCN(CC)C(=O)c1cnn(C)c1C(=O)Nc1ccc2nc(N3CCC(OC)C3)nn2c1` (stereo not drawn) [Example 38], the IC50 was 29.4 nM.
For `COC1CCN(c2nc3ccc(NC(=O)c4c(C(=O)N5CCOCC5)cnn4C)cn3n2)C1` (stereo not drawn) [Example 39, 2-Methyl-4-(morpholine-4-carbonyl)-2H-pyrazole-3-carboxylic acid [2-(3-methoxy-pyrrolidin-1-yl)-[1,2,4]triazolo[1,5-a]pyridin-6-yl]-amide], the IC50 was 23.1 nM.
In the case of `CCN(C)C(=O)c1cnn(C)c1C(=O)Nc1ccc2nc(N3CCC(OC)C3)nn2c1` (stereo not drawn) [Example 40, 2-Methyl-2H-pyrazole-3,4-dicarboxylic acid 4-(ethyl-methyl-amide) 3-{[2-(3-methoxy-pyrrolidin-1-yl)-[1,2,4]triazolo[1,5-a]pyridin-6-yl]-amide}], the IC50 is reported as 17 nM.
Work on `COC1CCN(c2nc3ccc(NC(=O)c4c(C(=O)N(C)C5CC5)cnn4C)cn3n2)C1` (stereo not drawn) [Example 41, 2-Methyl-2H-pyrazole-3,4-dicarboxylic acid 4-(cyclopropyl-methyl-amide) 3-{[2-(3-methoxy-pyrrolidin-1-yl)-[1,2,4]triazolo[1,5-a]pyridin-6-yl]-amide}] yielded an IC50 of 3.5 nM.
With `COC1CCN(c2nc3ccc(NC(=O)c4c(C(=O)N5CCCC5)cnn4C)cn3n2)C1` (stereo not drawn) [Example 42, 2-Methyl-4-(pyrrolidine-1-carbonyl)-2H-pyrazole-3-carboxylic acid [2-(3-methoxy-pyrrolidin-1-yl)-[1,2,4]triazolo[1,5-a]pyridin-6-yl]-amide] the IC50 was 7.5 nM.
`COC1CCN(c2nc3ccc(NC(=O)c4c(C(=O)N5CCC5)cnn4C)cn3n2)C1` (stereo not drawn) [Example 43, 4-(Azetidine-1-carbonyl)-2-methyl-2H-pyrazole-3-carboxylic acid [2-(3-methoxy-pyrrolidin-1-yl)-[1,2,4]triazolo[1,5-a]pyridin-6-yl]-amide] showed an IC50 of 4.9 nM.

Tested on: not given
Experiment: not given
Settings: not given
Work on `Cn1ncc(C(=O)O)c1C(=O)Nc1ccc2nc(-c3ccccc3)nn2c1` [Example 1, 1-Methyl-5-(2-phenyl-[1,2,4]triazolo[1,5-a]pyridin-6-ylcarbamoyl)-1H-pyrazole-4-carboxylic acid] yielded a melting point of 259 °C.
`Cn1ncc(C(=O)N2CCCC2)c1C(=O)Nc1ccc2nc(-c3ccccc3)nn2c1` [Example 2, 2-Methyl-4-(pyrrolidine-1-carbonyl)-2H-pyrazole-3-carboxylic acid (2-phenyl-[1,2,4]triazolo[1,5-a]pyridin-6-yl)-amide] gave a melting point of 210 °C.
Work on `Cn1ncc(C(=O)N2CC(F)C2)c1C(=O)Nc1ccc2nc(-c3ccccc3)nn2c1` [Example 6, 4-(3-Fluoro-azetidine-1-carbonyl)-2-methyl-2H-pyrazole-3-carboxylic acid (2-phenyl-[1,2,4]triazolo[1,5-a]pyridin-6-yl)-amide] yielded a melting point of 243 °C.
For `CN(C(=O)c1cnn(C)c1C(=O)Nc1ccc2nc(-c3ccccc3)nn2c1)C1CC1` [Example 8, 2-Methyl-2H-pyrazole-3,4-dicarboxylic acid 4-(cyclopropyl-methyl-amide) 3-[(2-phenyl-[1,2,4]triazolo[1,5-a]pyridin-6-yl)-amide]], the melting point was 106 °C.
In the case of `Cn1ncc(C(=O)N2CCOCC2)c1C(=O)Nc1ccc2nc(-c3cccnc3)nn2c1` [Example 9, 2-Methyl-4-(morpholine-4-carbonyl)-2H-pyrazole-3-carboxylic acid (2-pyridin-3-yl-[1,2,4]triazolo[1,5-a]pyridin-6-yl)-amide], the melting point is reported as 229 °C.
`Cn1ncc(C(=O)N2CCC2)c1C(=O)Nc1ccc2nc(-c3cccnc3)nn2c1` [Example 10, 4-(Azetidine-1-carbonyl)-1-methyl-N-(2-(pyridin-3-yl)-[1,2,4]triazolo[1,5-a]pyridin-6-yl)-1H-pyrazole-5-carboxamide] gave a melting point of 272 °C.
